Measurements reported in patent publication US20040009899A1, “Treating dominant disorders” (priority 2002, published 2004).

System: R6/2 mice
Assay: Open field test to assess motility
Assay type: in vivo, mouse
Details: for level of motility (open field test): R6/2 mice
Description: Open field test to assess motility: Each mouse was confined for 10 minutes in a Plexiglas locomotion chamber equipped with a laser source and detector. As the mouse passed between the laser source and detector, the laser beam was “broken” and the event was automatically recorded. The number of beam breaks for B6CBA mice treated with the HDs PNA oligomer was compared to that of saline-treated or untreated control B6CBA mice. This number was directly related to general activity of the mice.
Experiments were conducted to determine whether PNA-mediated inhibition of mutant huntingtin expression increased survival and/or reversed features of pathophysiology. R6/2 and non-transgenic mice were divided into two groups of three to five mice each, and treated with either HDs or ACSF for approximately ten weeks, beginning at five to six weeks of age. Treated animals received a dose of 0.15 mg/kg of the HDs PNA oligomer, administered by continuous infusion through an Alzet pump. All ACSF-treated transgenic mice died by three months of age.
In other experiments, R6/2 mice were divided into five groups (designated groups 1-5) containing eight to ten animals each. Groups 1-4 received either saline (group 1) or a specific amount of HDs (groups 2-4). Group 5 included untreated R6/2 mice. A sixth group included untreated non-transgenic B6CBA control mice. At 8 weeks of age, each mouse was weighed to establish a weight stability baseline. Baselines for clasping behavior, motility, and motor skill were established at 9 weeks of age using the methods described in Example 1.
At 9 weeks of age, the mice in each group received saline (group 1) or HDs at 2.0 mg/kg, 5.0 mg/kg, or 20.0 mg/kg (groups 2, 3, and 4, respectively) by i.p. injection every 48 hours. The injections continued through 13 weeks of age (i.e., treatment for […]). Weight stability, clasping behavior, motility, and motor skill were assessed weekly during the treatment period. At the time of death or after the treatment period, the brain of each mouse was removed using standard methods. The brains were divided into hemispheres, and one hemisphere of each brain was saved for protein and mRNA analysis. The remaining hemispheres were fixed directly in 10% formalin for 5-7 days. After fixing, the brain hemispheres were weighed individually and processed for sectioning and pathophysiology.

Substance: HDs: sense PNA oligomer, 14 residues, 5′-GGACTGCCGTGCCG-3′ (SEQ ID NO:3), specific for the expanded human HD allele (all peptide nucleic acid (PNA))
- level of motility (open field test) (2.0 mg/kg i.p. every 48 hours, compared to untreated R6/2 mice): no difference in motility
- level of motility (open field test) (5.0 mg/kg i.p. every 48 hours, lower than nontransgenic controls): increased as compared to untreated R6/2 mice
- level of motility (open field test) (20.0 mg/kg i.p. every 48 hours, lower than nontransgenic controls): increased as compared to untreated R6/2 mice
- motility as compared to non-transgenic animals (surviving R6/2 mice, 0.15 mg/kg continuous infusion by Alzet pump): decline in motility
